The assay addresses T1, human Nav1.8 channels (Homo sapiens, UniProt Q9Y5Y9).
T1 construct: expressed in transfected cells
Briefly: Nav1.8 Qube automated patch-clamp assay. It is filed as cell-based. As to conditions: human Nav1.8 stably expressed in HEK 293 cells; whole-cell voltage clamp, room temperature; resting or inactivated state not specified; read-out: IC50 values (nM) for Examples in the Nav1.8 Qube Assay. The protocol: Compounds were tested on human Nav1.8 and Nav1.5 channels stably expressed in human embryo kidney (HEK) 293 cells. Sodium current measurements on Qube® were conducted as follows: automated 384-well patch-clamp assays on the Qube® platform (Sophion Biosciences) were used to measure the inhibition of sodium flow through human Nav1.8 and Nav1.5 channels. Whole-cell voltage-clamp recordings were performed in QChips® (Sophion Biosciences) at room temperature. Nav1.8 current measurements on Qube® were obtained as follows: Nav1.8 currents were elicited with a 10 second 1 Hertz (Hz) pulse train from a holding potential of −90 millivolts (mV), delivered to the cells once per minute in the control condition (DMSO only) and after compound addition. The 1 hertz pulse train stimulation consisted of ten test pulses to 10 millivolt (mV) for 20 milliseconds (ms), each of which was followed by a 980 millisecond repolarization to −67 millivolts. At the end of the 10 second pulse train stimulation, a second hyperpolarization step to −100 millivolt (mV) was used to recover Nav1.8 from fast inactivation. The peak currents elicited by the 1st and 10th test pulses were used to determine IC50 values for resting inhibition and inactivated state inhibition. Nav1.5 current measurements on Qube® were obtained as follows: Nav1.5 currents were elicited with a 20 second 3 Hertz pulse train in the control condition (DMSO only) and after compound addition. The pulse train consisted of sixty 20 millisecond test pulses to 0 millivolt from a holding potential of −80 millivolt (mV). The average peak currents elicited by the last 3 test pulses were used to determine IC50 values for Nav1.5 inhibition.
The following buffers were used for the Qube® recordings: External buffer for Nav1.8 Qube® recording: 150 NaCl, 2 CaCl2, 5 KCl, 1 Mg Cl2, 10 HEPES, 12 Dextrose; External buffer for Qube® Nav1.5 recording: 120 N-Methyl-D-Glucamine, 40 NaCl, 1 KCl, 2.7 CaCl2, 5 HEPES, 0.5 MgCl2: and Internal buffer for Qube® recording: 120 CsF, 30 CsCl, 10 EGTA, 5 HEPES, 5 NaF, 2 MgCl2.
For all Qube® experiments offline analysis was used to determine percent inhibition as a function of drug concentration. IC50 values were determined by fitting to the Hill equation.
On the technique in general: The patch-clamp technique gives a direct electrical read-out from membranes.
T1 sequence (Q9Y5Y9 whole entry): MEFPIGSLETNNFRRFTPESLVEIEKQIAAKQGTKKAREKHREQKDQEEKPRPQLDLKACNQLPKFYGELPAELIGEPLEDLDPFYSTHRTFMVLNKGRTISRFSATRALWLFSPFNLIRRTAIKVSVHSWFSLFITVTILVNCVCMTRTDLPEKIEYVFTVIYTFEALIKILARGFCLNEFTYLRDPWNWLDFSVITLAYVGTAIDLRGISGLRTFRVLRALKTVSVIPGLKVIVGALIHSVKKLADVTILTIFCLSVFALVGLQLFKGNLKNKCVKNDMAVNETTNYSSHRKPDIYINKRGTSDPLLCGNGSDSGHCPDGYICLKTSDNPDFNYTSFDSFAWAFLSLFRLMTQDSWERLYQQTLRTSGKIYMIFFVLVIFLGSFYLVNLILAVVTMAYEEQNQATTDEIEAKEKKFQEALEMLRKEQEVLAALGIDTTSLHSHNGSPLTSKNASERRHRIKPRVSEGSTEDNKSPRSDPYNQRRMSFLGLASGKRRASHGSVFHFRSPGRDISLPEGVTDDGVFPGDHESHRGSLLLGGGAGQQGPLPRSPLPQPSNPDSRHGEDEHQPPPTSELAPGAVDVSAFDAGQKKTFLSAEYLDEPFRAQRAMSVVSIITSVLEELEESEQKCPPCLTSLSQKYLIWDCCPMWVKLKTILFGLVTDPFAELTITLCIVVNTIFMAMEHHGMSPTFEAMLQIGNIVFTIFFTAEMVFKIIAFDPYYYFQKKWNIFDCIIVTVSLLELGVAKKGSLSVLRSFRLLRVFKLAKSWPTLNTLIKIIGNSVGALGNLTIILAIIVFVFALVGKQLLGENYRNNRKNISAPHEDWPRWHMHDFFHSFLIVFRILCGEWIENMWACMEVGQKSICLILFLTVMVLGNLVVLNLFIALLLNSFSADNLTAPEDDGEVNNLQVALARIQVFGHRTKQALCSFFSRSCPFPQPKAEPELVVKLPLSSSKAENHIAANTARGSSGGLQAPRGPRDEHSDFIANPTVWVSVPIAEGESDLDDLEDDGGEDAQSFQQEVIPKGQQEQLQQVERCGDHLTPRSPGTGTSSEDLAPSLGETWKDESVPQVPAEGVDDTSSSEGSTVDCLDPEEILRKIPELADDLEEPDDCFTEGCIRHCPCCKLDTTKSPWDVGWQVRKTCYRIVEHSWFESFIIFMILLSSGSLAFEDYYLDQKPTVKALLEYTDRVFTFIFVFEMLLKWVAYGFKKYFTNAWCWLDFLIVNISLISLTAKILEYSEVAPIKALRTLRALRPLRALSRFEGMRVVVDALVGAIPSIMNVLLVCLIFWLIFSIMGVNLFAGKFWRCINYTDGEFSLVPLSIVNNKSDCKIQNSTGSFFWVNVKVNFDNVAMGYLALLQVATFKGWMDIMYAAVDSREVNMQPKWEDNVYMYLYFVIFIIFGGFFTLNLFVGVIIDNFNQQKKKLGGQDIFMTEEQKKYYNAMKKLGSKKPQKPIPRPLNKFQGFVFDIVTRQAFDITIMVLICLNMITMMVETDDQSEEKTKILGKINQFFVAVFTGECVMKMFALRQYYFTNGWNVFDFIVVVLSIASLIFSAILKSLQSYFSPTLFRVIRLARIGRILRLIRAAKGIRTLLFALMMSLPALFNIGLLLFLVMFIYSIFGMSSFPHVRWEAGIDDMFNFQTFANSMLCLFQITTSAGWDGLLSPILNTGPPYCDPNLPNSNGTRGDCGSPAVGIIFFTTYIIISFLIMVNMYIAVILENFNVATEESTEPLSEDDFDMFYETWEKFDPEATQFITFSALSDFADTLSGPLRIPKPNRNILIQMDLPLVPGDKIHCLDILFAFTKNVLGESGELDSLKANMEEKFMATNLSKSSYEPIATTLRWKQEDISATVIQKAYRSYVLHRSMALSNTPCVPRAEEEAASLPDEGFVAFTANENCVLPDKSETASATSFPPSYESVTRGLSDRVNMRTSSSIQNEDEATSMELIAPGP
As usually defined, the IC50 is the concentration that gives 50% inhibition. For `N#Cc1cc(NC(=O)c2cc(C(F)(F)F)cnc2N2CCCCCC2)ccn1` [Example 197, 2-(azepan-1-yl)-N-(2-cyano-4-pyridyl)-5-(tri-fluoromethyl)pyridine-3-carboxamide], the 50% inhibitory concentration (IC50) was 244 nM.

Consider `CC1CC(F)(F)CCN1c1ncc(C(F)(F)F)cc1C(=O)Nc1ccnc(S(N)(=O)=O)c1` (single isomer, unassigned) [Example 73, (R or S)-2-(4,4-difluoro-2-methylpiperidin-1-yl)-N-(2-sulfamoylpyridin-4-yl)-5-(trifluoromethyl)nicotinamide], for which the IC50 was 225 nM.

Take `NS(=O)(=O)c1cc(NC(=O)c2cc(C(F)(F)F)cnc2N2CCCC(C(F)(F)F)C2)ccn1` (stereo not shown) [Example 80, N-(2-sulfamoyl-4-pyridyl)-5-(trifluoromethyl)-2-[3-(trifluoromethyl)-1-piperidyl]pyridine-3-carboxamide]: the IC50 was determined as 31 nM.

For the molecule `Cc1nc(N2CCC(F)(F)CC2)c(C(=O)Nc2cncc(S(N)(=O)=O)c2)c(C)c1Cl` [Example 189, 5-chloro-2-(4,4-difluoro-1-piperidyl)-4,6-dimethyl-N-(5-sulfamoyl-3-pyridyl)pyridine-3-carboxamide], the IC50 is 13 nM.

Take `NC(=O)c1cncc(NC(=O)c2cc(C(F)(F)F)cnc2N2CCCCCC2)c1` [Example 8, 2-(azepan-1-yl)-N-(5-carbamoylpyridin-3-yl)-5-(trifluoromethyl)nicotinamide]: the IC50 is 2350 nM.

As to `CC1CN(c2ncc(C(F)(F)F)cc2C(=O)Nc2ccnc(C(N)=O)c2)CCC1(F)F` (single isomer, unassigned) [Example 157, N-(2-carbamoyl-4-pyridyl)-2-[(3R or 3S)-4,4-difluoro-3-methyl-1-piperidyl]-5-(trifluoromethyl)-pyridine-3-carboxamide], the IC50 came out at 82 nM.

As to `Cc1nc(N2CCC(F)(F)CC2)c(C(=O)Nc2ccnc(S(N)(=O)=O)c2)cc1OCC(F)(F)F` [Example 183], the IC50 amounted to 82 nM.

Consider `CC1CN(c2nc(C(F)(F)F)c(Cl)cc2C(=O)Nc2ccnc(S(N)(=O)=O)c2)CCC1(F)F` (single isomer, unassigned) [Example 164, (S or R)-5-chloro-2-(4,4-difluoro-3-methylpiperidin-1-yl)-N-(2-sulfamoylpyridin-4-yl)-6-(trifluoromethyl)nicotinamide], for which the IC50 turned out to be 3.3 nM.

As for `NS(=O)(=O)c1cc(NC(=O)c2cc(C(F)(F)F)cnc2N2CCC[C@H]2C(F)(F)F)ccn1` [Example 126, N-(2-sulfamoylpyridin-4-yl)-5-(trifluoromethyl)-2-[(2S)-2-(trifluoromethyl)pyrrolidin-1-yl]pyridine-3-carboxamide], the IC50 was found to be 21 nM.

As to `O=C(Nc1cncc(F)c1)c1cc(C(F)(F)F)cnc1N1CCCCCC1` [Example 186, 2-(azepan-1-yl)-N-(5-fluoropyridin-3-yl)-5-(trifluoromethyl)nicotinamide], the IC50 worked out at 1290 nM.

With `NS(=O)(=O)c1cncc(NC(=O)c2cc(C(F)(F)F)cnc2N2CCCC(F)(F)CC2)c1` [Example 144, 2-(4,4-difluoroazepan-1-yl)-N-(5-sulfamoyl-3-pyridyl)-5-(trifluoro-methyl)pyridine-3-carboxamide], the IC50 turned out to be 36 nM.

`Cc1sc(S(N)(=O)=O)cc1NC(=O)c1cc(C(F)(F)F)cnc1N1CCCCCC1` [Example 114, 2-(azepan-1-yl)-N-(2-methyl-5-sulfamoyl-thiophen-3-yl)-5-(trifluoromethyl)pyridine-3-carboxamide]: the IC50 worked out at 95 nM.

With `NS(=O)(=O)c1cc(NC(=O)c2cc(C(F)(F)F)cnc2N2CCCC3(C2)CC3(F)F)ccn1` (single isomer, unassigned) [Example 67, (S or R)-2-(1,1-difluoro-5-azaspiro[2.5]octan-5-yl)-N-(2-sulfamoylpyridin-4-yl)-5-(trifluoromethyl)nicotinamide], the IC50 is 25 nM.

Source of the values: US20210387966A1, “2-AMINO-N-HETEROARYL-NICOTINAMIDES AS NAV1.8 INHIBITORS” (Merck Sharp & Dohme Corp., priority 2018, published 2021).
